Test results published in patent US7767659B2, “Synthesis of naturally occurring ecteinascidins and related compounds” (Pharma Mar, S.A., priority 2002, dated 2010).

Tests used:
PANC-1 = test: Inhibition of cells growth by colorimetric assay (SRB); details: Homo sapiens, PANC-1, 48 h
How it was run: (§1)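 Colorimetric SRB read (490 nm) on triplicate wells after 48 h at 37 °C, 5% CO2. Dose range 10 to 10^−8 μg/ml; 5×10^3 cells/well pre-attached 18 h.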

SK-BR-3 = test: as above; details: Homo sapiens, SK-BR-3, 48 h
How it was run: as §1

K-562 = test: as above; details: Homo sapiens, K562, 48 h
How it was run: as §1

LoVo-Dox = test: as above; details: Homo sapiens, 48 h
How it was run: as §1

SK-MEL-28 = test: as above; details: Homo sapiens, SK-MEL-28, 48 h
How it was run: as §1

LNCaP = test: as above; details: Homo sapiens, LNCaP, 48 h
How it was run: as §1

IGROV-ET = test: as above; details: Homo sapiens, 48 h
How it was run: as §1

DU-145 = test: as above; details: Homo sapiens, DU-145, 48 h
How it was run: as §1

HeLa = test: as above; details: Homo sapiens, HeLa, 48 h
How it was run: as §1

HeLa-APL = test: as above; details: Homo sapiens, 48 h
How it was run: as §1

IGROV-1 = test: as above; details: Homo sapiens, IGROV-1, 48 h
How it was run: as §1

LoVo = test: cells; details: Homo sapiens, LoVo, 48 h
How it was run: as §1

HT-29 = test: cells; details: Homo sapiens, HT-29, 48 h
How it was run: as §1

A-549 = test: cells; details: Homo sapiens, A549, 48 h
How it was run: as §1

With COc1c(C)cc2c(c1O)[C@H]1N[C@@H](C2)[C@H](C#N)N2C1[C@@H]1SCC(NC(C)=O)C(=O)OC[C@H]2c2c3c(c(C)c(OC(C)=O)c21)OCO3 (stereo partly drawn) [compound 30] the GI50 (PANC-1; read-out: GI50 PANC-1) was 2.89 nM, the CC50 (PANC-1; read-out: LC50 PANC-1) was 15400 nM and the IC (TGI) (PANC-1; read-out: TGI PANC-1) was 15.5 nM. It also gave a GI50 (SK-BR-3; read-out: GI50 SK-BR3) of 0.527 nM, a CC50 (SK-BR-3; read-out: LC50 SK-BR3) of 267 nM and an IC (TGI) (SK-BR-3; read-out: TGI SK-BR3) of 2.29 nM. The GI50 (K-562; read-out: GI50 K562) was 0.312 nM, the CC50 (K-562; read-out: LC50 K562) was 9510 nM and the IC (TGI) (K-562; read-out: TGI K562) was 2.49 nM. For the same compound, the GI50 (LoVo-Dox; read-out: GI50 LOVO-DOX) was 207 nM, the CC50 (LoVo-Dox; read-out: LC50 LOVO-DOX) was 15400 nM and the IC (TGI) (LoVo-Dox; read-out: TGI LOVO-DOX) was 2070 nM. For the same compound, the GI50 (SK-MEL-28; read-out: GI50 MEL-28) was 1.09 nM, the CC50 (SK-MEL-28; read-out: LC50 MEL-28) was 10.7 nM and the IC (TGI) (SK-MEL-28; read-out: TGI MEL-28) was 3.66 nM. It also gave a GI50 (LNCaP; read-out: GI50 LNCAP) of 96.8 nM, a CC50 (LNCaP; read-out: LC50 LNCAP) of 147 nM and an IC (TGI) (LNCaP; read-out: TGI LNCAP) of 120 nM. For the same compound, the GI50 (IGROV-ET; read-out: GI50 IGROV-ET) was 25.4 nM, the CC50 (IGROV-ET; read-out: LC50 IGROV-ET) was 15400 nM and the IC (TGI) (IGROV-ET; read-out: TGI IGROV-ET) was 82.4 nM. For the same compound, the GI50 (DU-145; read-out: GI50 DU145) was 2.63 nM, the CC50 (DU-145; read-out: LC50 DU145) was 14100 nM and the IC (TGI) (DU-145; read-out: TGI DU145) was 7.44 nM. The GI50 (HeLa; read-out: GI50 HELA) was 1.15 nM, the CC50 (HeLa; read-out: LC50 HELA) was 21.7 nM and the IC (TGI) (HeLa; read-out: TGI HELA) was 4.53 nM. For the same compound, the GI50 (HeLa-APL; read-out: GI50 HELA-APL) was 1.86 nM, the CC50 (HeLa-APL; read-out: LC50 HELA-APL) was 19.5 nM and the IC (TGI) (HeLa-APL; read-out: TGI HELA-APL) was 5.5 nM. The GI50 (IGROV-1; read-out: GI50 IGROV) was 0.695 nM, the CC50 (IGROV-1; read-out: LC50 IGROV) was 231 nM and the IC (TGI) (IGROV-1; read-out: TGI IGROV) was 3.32 nM. For the same compound, the GI50 (LoVo; read-out: GI50 LOVO) was 2 nM, the CC50 (LoVo; read-out: LC50 LOVO) was 15400 nM and the IC (TGI) (LoVo; read-out: TGI LOVO) was 8.07 nM. For the same compound, the GI50 (HT-29; read-out: GI50 HT29) was 2.03 nM, the CC50 (HT-29; read-out: LC50 HT29) was 15400 nM and the IC (TGI) (HT-29; read-out: TGI HT29) was 13.5 nM. It also gave a GI50 (A-549; read-out: GI50 A549) of 3.47 nM, a CC50 (A-549; read-out: LC50 A549) of 89 nM and an IC (TGI) (A-549; read-out: TGI A549) of 10.5 nM.
